Test results from patent US7799785B2, “Substituted tetracyclic tetahydrofuran, pyrrolidine and tetrahydrothiophene derivatives” (Janssen Pharmaceutica NV, priority 2004, dated 2010).

Experiments:
[1] = target: T1, human Dopamine D2L receptor (Homo sapiens, UniProt P14416); assay: In vitro binding affinity for human D2L receptor ([3H]Spiperone); conditions: human D2L receptor-transfected CHO cell membranes
T1 construct: expressed in transfected cells; host or cells: CHO cells
Experimental: In vitro Binding Affinity for Human D2L Receptor
Frozen membranes of human Dopamine D2L receptor-transfected CHO cells were thawed, briefly homogenised using an Ultra-Turrax T25 homogeniser and diluted in Tris-HCl assay buffer containing NaCl, CaCl2, MgCl2, KCl (50, 120, 2, 1, and 5 mM respectively, adjusted to pH 7.7 with HCl) to an appropriate protein concentration optimised for specific and non-specific binding. Radioligand [^3H]Spiperone (NEN, specific activity ˜70 Ci/mmol) was diluted in assay buffer at a concentration of 2 nmol/L. Prepared radioligand (50 μl), along with 50 μl of either the 10% DMSO control, Butaclamol (10^−6 mol/l final concentration), or compound of interest, was then incubated (30 min, 37° C.) with 400 μl of the prepared membrane solution. Membrane-bound activity was filtered through a Packard Filtermate harvester onto GF/B Unifilterplates and washed with ice-cold Tris-HCl buffer (50 mM; pH 7.7; 6×0.5 ml). Filters were allowed to dry before adding scintillation fluid and counting in a Topcount scintillation counter. Percentage specific bound and competition binding curves were calculated using S-Plus software (Insightful).

[2] = target: T2, NET (Rattus norvegicus, UniProt Q63380); assay: In vitro determination of NET reuptake inhibition ([3H]Nixosetine binding, rat brain cortex membranes)
T2 construct: Cortex from rat brain was collected and homogenised; from tissue; host or cells: rat brain cortex homogenate/membranes
Experimental: In vitro Determination of NET Reuptake Inhibition
Cortex from rat brain was collected and homogenised using an Ultra-Turrax T25 and a Dual homogeniser in ice-cold homogenising buffer containing Tris, NaCl and KCl (50 mM, 120 mM and 5 mM, respectively, pH 7.4) prior to dilution to an appropriate protein concentration optimised for specific and non-specific binding. […] Membrane-bound activity was detected by filtration through a Packard Filtermate harvester onto GF/B Unifilterplates, washed with ice-cold Tris-HCl buffer, containing NaCl and KCl (50 mM, 120 mM and 4 mM; pH 7.4; 6×0.5 ml). Filters were allowed to dry for 24 h before adding scintillation fluid. Scintillation fluid was allowed to saturate filters for 24 h before counting in a Topcount scintillation counter. Percentage specific bound and competition binding curves were calculated using S-Plus software (Insightful).

[3] = target: T3, human cloned 5-HT2C receptor, expressed in CHO cells (Homo sapiens, UniProt P28335); assay: In vitro radioligand binding affinity for 5-HT2C receptor ([3H]mesulergine)
T3 construct: expressed in transfected cells; host or cells: CHO cells
T3 sequence (P28335 33-458): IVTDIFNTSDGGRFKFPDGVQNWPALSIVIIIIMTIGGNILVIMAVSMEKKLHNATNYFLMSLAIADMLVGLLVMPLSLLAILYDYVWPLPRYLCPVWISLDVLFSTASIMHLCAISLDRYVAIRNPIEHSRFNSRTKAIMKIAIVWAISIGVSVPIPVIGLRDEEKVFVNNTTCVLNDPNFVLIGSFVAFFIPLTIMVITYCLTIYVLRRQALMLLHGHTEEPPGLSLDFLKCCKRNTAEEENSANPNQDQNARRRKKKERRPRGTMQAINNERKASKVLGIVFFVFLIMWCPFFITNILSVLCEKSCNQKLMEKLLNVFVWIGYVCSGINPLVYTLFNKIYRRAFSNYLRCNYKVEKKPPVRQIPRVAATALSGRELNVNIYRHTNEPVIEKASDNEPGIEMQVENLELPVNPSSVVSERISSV
Experimental: (§1) In vitro Binding Affinity for 5-HT2A and 5-HT2C Receptors
The interaction of the compounds of Formula (I) with 5-HT2A and 5-HT2C receptors was assessed in in vitro radioligand binding experiments. […] During the incubation, the radioligands bind to the receptor. When equilibrium of binding is reached, the receptor bound radioactivity is separated from the non-bound radioactivity, and the receptor bound activity is counted. The interaction of the test compounds with the receptors is assessed in competition binding experiments. Various concentrations of the test compound are added to the incubation mixture containing the tissue preparation and the radioligand. Binding of the radioligand will be inhibited by the test compound in proportion to its binding affinity and its concentration.

[4] = target: T4, human cloned 5-HT2A receptor, expressed in L929 cells (Homo sapiens, UniProt P28223); assay: In vitro radioligand binding affinity for 5-HT2A receptor ([125I]R91150); conditions: read-out: h-5HT2A (converted)
T4 construct: expressed in transfected cells; host or cells: L929 cells
Experimental: as §1
The interaction of the compounds of Formula (I) with 5-HT2A and 5-HT2C receptors was assessed in in vitro radioligand binding experiments. In general, a low concentration of a radioligand with a high binding affinity for the receptor is incubated with a sample of a tissue preparation enriched in a particular receptor (1 to 5 mg tissue) in a buffered medium (0.2 to 5 ml). During the incubation, the radioligands bind to the receptor. When equilibrium of binding is reached, the receptor bound radioactivity is separated from the non-bound radioactivity, and the receptor bound activity is counted. The interaction of the test compounds with the receptors is assessed in competition binding experiments. Various concentrations of the test compound are added to the incubation mixture containing the tissue preparation and the radioligand. Binding of the radioligand will be inhibited by the test compound in proportion to its binding affinity and its concentration. The affinities of the compounds for the 5-HT2 receptors were measured by means of radioligand binding studies conducted with: (a) human cloned 5-HT2A receptor, expressed in L929 cells using [^125I]R91150 as radioligand and (b) human cloned 5-HT2C receptor, expressed in CHO cells using [^3H]mesulergine as radioligand.

T4 sequence (P28223 whole entry): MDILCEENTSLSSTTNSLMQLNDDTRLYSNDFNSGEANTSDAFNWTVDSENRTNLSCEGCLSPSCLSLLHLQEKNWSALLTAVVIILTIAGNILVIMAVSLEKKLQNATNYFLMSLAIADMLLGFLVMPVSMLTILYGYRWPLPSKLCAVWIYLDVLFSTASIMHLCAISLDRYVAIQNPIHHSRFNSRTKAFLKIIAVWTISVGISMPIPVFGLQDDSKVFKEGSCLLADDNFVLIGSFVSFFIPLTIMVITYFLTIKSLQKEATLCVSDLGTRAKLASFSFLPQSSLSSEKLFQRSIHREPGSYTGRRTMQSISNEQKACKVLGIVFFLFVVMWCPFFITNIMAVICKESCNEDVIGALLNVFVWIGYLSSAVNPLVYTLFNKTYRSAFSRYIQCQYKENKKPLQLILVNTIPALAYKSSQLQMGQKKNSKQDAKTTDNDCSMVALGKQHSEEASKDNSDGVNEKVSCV
T1 sequence (P14416 whole entry): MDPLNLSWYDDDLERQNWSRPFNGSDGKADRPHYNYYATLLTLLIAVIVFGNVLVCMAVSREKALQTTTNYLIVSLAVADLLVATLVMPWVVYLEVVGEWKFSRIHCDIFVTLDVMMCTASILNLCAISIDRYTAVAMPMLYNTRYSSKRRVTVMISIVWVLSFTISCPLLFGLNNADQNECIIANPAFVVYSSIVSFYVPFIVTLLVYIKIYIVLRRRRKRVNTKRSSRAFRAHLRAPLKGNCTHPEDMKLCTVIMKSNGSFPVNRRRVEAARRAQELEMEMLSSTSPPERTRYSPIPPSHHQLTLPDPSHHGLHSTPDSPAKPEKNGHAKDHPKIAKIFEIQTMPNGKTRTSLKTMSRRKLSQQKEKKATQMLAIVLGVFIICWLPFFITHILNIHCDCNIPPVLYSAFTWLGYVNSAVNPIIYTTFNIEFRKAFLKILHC
T2 sequence (Q63380 1-617): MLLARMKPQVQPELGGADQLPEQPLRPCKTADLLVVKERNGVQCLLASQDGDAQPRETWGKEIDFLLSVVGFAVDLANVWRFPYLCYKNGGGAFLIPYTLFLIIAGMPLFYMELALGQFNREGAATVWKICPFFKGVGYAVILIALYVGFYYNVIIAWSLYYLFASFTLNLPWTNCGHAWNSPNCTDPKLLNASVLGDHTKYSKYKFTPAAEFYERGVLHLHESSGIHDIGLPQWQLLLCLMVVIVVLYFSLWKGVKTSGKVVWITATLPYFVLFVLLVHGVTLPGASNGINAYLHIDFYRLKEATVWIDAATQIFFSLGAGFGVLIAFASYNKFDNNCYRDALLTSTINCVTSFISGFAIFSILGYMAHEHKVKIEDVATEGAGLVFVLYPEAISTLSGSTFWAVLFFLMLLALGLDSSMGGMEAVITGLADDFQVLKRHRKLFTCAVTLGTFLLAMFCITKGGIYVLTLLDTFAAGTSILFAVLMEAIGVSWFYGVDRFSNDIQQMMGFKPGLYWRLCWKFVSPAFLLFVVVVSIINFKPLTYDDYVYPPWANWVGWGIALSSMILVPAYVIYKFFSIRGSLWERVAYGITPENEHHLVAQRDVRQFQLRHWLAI

SMILES | IC50 [1] [nM] | IC50 [2] [nM] | IC50 [3] [nM] | IC50 [4] [nM] | melting point [°C] | NET Reuptake Inhibition [2]
COC(=O)N1[C@@H](CN(C)C)C[C@@H]2c3ccccc3Cc3ccc(F)cc3[C@H]21 [36a, Methyl(2R,3aR,12bS)-2-[(dimethylamino)methyl]-11-fluoro-3,3a,8,12b-tetrahydro-dibenzo[3,4:6,7]cyclohepta[1,2-b]pyrrole-1(2H)-carboxylate] | > 1000 | 692 | > 1000 | > 1000 |  | 
CN1CC(=O)N2[C@H](C[C@@H]3c4ccccc4Cc4ccc(F)cc4[C@H]32)C1 [compound 13, (5aS,14bR,15aR)-7-fluoro-2-methyl-1,2,3,5a,10,14b,15,15a-octahydro-4H-dibenzo-[3′,4′:6′,7′]cyclohepta[1′,2′:4,5]pyrrolo[1,2-a]pyrazin-4-one] |  |  |  |  | 139 to 141 | <5
CN(CCO)C[C@H]1C[C@@H]2c3ccccc3Cc3ccc(F)cc3[C@H]2N1 [43b, 2-[{[(2R,3aR,12bS)-11-fluoro-1,2,3,3a,8,12b-hexahydrodibenzo[3,4:6,7]-cyclohepta[1,2-b]pyrrol-2-yl]methyl}(methyl)amino]-ethanol] | 437 | 15.8 | 89.1 | 67.6 |  | 
CN[C@@H]1CO[C@@H]2c3cc(F)ccc3Cc3ccccc3[C@H]2C1 (relative stereo) [compound 35, (3S *,4aR*,13bS*)-12-fluoro-N-methyl-2,3,4,4a,9,13b-hexahydrodibenzo[3,4:6,7]-cyclohepta[1,2-b]pyran-3-amine] | > 1000 | > 1000 |  | > 1000 |  | 
N[C@@H]1CO[C@H]2c3cc(F)ccc3Cc3ccccc3[C@H]2C1 [compound 30, (3S,4aR,13bR)-12-fluoro-2,3,4,4a,9,13b-hexahydrodibenzo[3,4:6,7]cyclohepta-[1,2-b]pyran-3-amine] |  | 302 |  |  | 74 to 76 | 
CN(C)C[C@H]1C[C@@H]2c3ccccc3Cc3ccc(F)cc3[C@H]2N1C=O [36c, (2R,3aR,12bS)-2-[(dimethylamino)methyl]-11-fluoro-3,3a,8,12b-tetrahydrodibenzo[3,4:6,7]cyclohepta[1,2-b]pyrrole-1(2H)-carbaldehyde] | 4900 | 224 | 77.6 | 550 |  | 
